In patent US9321742B2, “N1-cyclic amine-N5-substituted biguanide derivatives, methods of preparing the same and pharmaceutical composition comprising the same” (IMMUNOMET THERAPEUTICS INC., priority 2011, dated 2016):

Legend:
[1] = system: HCT116 cells; assay: Measurement of effect of inhibiting cancer cell proliferation (MTT); assay type: cell-based; conditions: Homo sapiens; for inhibition at 100 µM: HCT-116, 100 uM, 48 hours, read-out: Cell Growth Inhibition (%) at 100 uM; for GI50: HCT-116, 48 hours
Excerpt: HCT116 cells derived from human colorectal cancer (commercially available from the Korean Cell Line Bank) were used, and the effect of inhibiting cancer cell proliferation of the biguanide derivative was confirmed by measuring the concentration value (cell growth inhibition concentration, GIC50) at which cell growth was inhibited by 50% using a 3-(4,5-dimethylthiazol-2-yl)-2,5-[…] bromide (MTT) reagent.
First, HCT116 cells were put on a 96-well plate and cultured in a DMEM medium containing 10% fetal bovine serum for 16 hours so that the cellcount in each well was approximately 5,000. Subsequently, to obtain the GIC50 value of each compound, culture media were treated with 100 μM, 25 μM, 6.25 μM, 1.56 μM or 0.39 μM of the compound, and then cultured for 48 hours. At this time, some of the compounds were treated with 200 μM instead of 100 μM. Metformin hydrochloride was used as the control, and the culture media were treated with 25, 12.5, 2.5, 0.5, 0.1 mM metformin hydrochloride, and then tested in the same manner as described in the derivatives synthesized in the examples. In order to determine whether the cells survived after treatment with the compound, MTT was added to the culture media which were then cultured for another 3 hours. Formed formazane crystals were dissolved using dimethyl sulfoxide (DMSO), and the absorbance of the resulting solution was measured at 560 nm. After the 48-hours culture, the ratio of the cell count cultured on a well plate not treated with the compound to the living cell count on a well plate treated with the compounds synthesized in the examples was indicated as cell viability (%) according to each treated concentration. A cell viability curve graph was plotted and the concentration (GIC50) value of the compound at which the growth was inhibited by 50% was calculated to confirm the effect of inhibition of cancer cell proliferation. Also, the cell growth viability (%) when the concentration of the treated biguanide derivative and the metformin hydrochloride as the control were 100 uM was shown.

[2] = system: AMPKα; assay: Measurement of AMPK-activation effect (AMPKα Thr172 phosphorylation immunoassay in MCF7 cells); assay type: cell-based, human; conditions: 24 hours; for AMPK activation effect 10 uM (%) / AMPK activation effect 50 uM (%): relative to untreated cells
Experimental: MCF7 cells derived from human breast cancer cells (commercially available from the Korean Cell Line Bank) were used, and the AMPK (5′-AMP-activated protein kinase alpha)-activation effect of the biguanide derivative was confirmed using an AMPKα immunoassay kit (Invitrogen, Catalog No. KH00651).
MCF7 cells were cultured in a DMEM medium supplemented with 10% fetal bovine serum. Thereafter, the cultured MCF7 cells were put into a 6-well plate with approximately 5×10^5 cells per well and cultured in an incubator supplied with 5% CO2. Culture media were treated with the derivatives synthesized in the examples at contents of 5, 10 and 50 μM, and then cultured for 24 hours. Metformin hydrochloride was used as the control, and the culture media were treated with 0.05, 0.5, 1, 2, 5 and 10 mM metformin hydrochloride, and then tested in the same manner as described in the derivatives synthesized in the examples. Subsequently, the cells were lysed according to a method presented in the operation manual of the AMPKα immunoassay kit, and 20 μg of a cell lysate was then yielded through protein assay. Thereafter, the AMPK activation effect was obtained by determining the degree of phosphorylation of 172nd threonine residue (Thr172) of the AMPKα from the cell lysate according to the method presented in the operation manual of the AMPKα immunoassay kit. […] A curve graph showing AMPK activation according to the concentration of the treated compounds was plotted based on the obtained AMPKα activation results, the concentration (activation concentration 150, AC150) value of the compound whose AMPK activation reached 150% was calculated using a GraphPad Prism 5.0 program, and the degrees of AMPK activation were obtained when concentrations of the treated biguanide derivatives were 10 μM and 50 μM and the metformin hydrochloride was 50 μM.

Row | SMILES | GI50 [1] | melting point | inhibition at 100 µM [1] | AMPK activation effect 10 uM (%) [2] | AMPK activation effect 50 uM (%) [2] | AC150 (concentration at which AMPK activation reached 150%) [2]
1 | Cl.N=C(NCCc1ccc(F)cc1)NC(=N)N1CCCCCC1 [Example 60, N1-azepane-N5-((4-fluoro)phenethyl)biguanide hydrochloride] | 22.4 µM | 211 to 212 °C | 73.7% | 744% | 721% | 0.7 µM
2 | CNC(=N)NC(=N)N1CCCCC1.Cl [Example 8, N1-piperidine-N5-methyl biguanide hydrochloride] | 88.6 µM | 211 to 212 °C | 50.5% | 139% | 500% | 9.0 µM
3 | Cl.N=C(NCc1ccco1)NC(=N)N1CCCC1 [Example 22, N1-pyrrolidine-N5-(furan-2-ylmethyl)biguanide hydrochloride] | > 100 µM | 242 to 243 °C | 43.9% | 101% | 293% | 18.3 µM
4 | Cl.N=C(NCc1c(F)cccc1F)NC(=N)N1CCCCC1 [Example 51, N1-piperidine-N5-(2,6-difluoro)benzyl biguanide hydrochloride] | > 100 µM | 229 to 232 °C | 96.8% | 179% |  | 2.1 µM
5 | Cl.N=C(NCc1ccco1)NC(=N)N1CCCCC1 [Example 23, N1-piperidine-N5-(furan-2-ylmethyl)biguanide hydrochloride] | > 100 µM | 251 to 252 °C | 39.5% | 112% | 298% | 15.8 µM
6 | Cl.N=C(NCc1ccc(Cl)c(Cl)c1)NC(=N)N1CCCCC1 [Example 55, N1-piperidine-N5-(3,4-dichloro)benzyl biguanide hydrochloride] | 10.3 µM | 242 to 244 °C | 97.7% | 443% | 830% | 0.9 µM
7 | Cl.N=C(NCCc1ccccc1)NC(=N)N1CCCCC1 [Example 58, N1-piperidine-N5-(phenethyl)biguanide hydrochloride] | 43.2 µM | 235 to 237 °C | 32.3% | 167% | 388% | 6.4 µM
8 | Cl.N=C(NCc1ccc(OC(F)(F)F)c(F)c1)NC(=N)N1CCCCC1 [Example 49, N1-piperidine-N5-(3-fluoro-4-trifluoromethoxy)benzyl biguanide hydrochloride] | 9.2 µM | 266 to 268 °C | 97% | 158% | 147% | 0.8 µM
9 | Cl.N=C(NCc1cccnc1)NC(=N)N1CCCC1 [Example 20, N1-pyrrolidine-N5-(pyridine-3-ylmethyl)biguanide hydrochloride] | > 100 µM | 201 to 203 °C | 9.2% | 71% | 89% | >50 µM
10 | Cl.N=C(NCCc1cccs1)NC(=N)N1CCCCC1 [Example 56, N1-piperidine-N5-(thiophene-2-yl)ethyl biguanide hydrochloride] |  | 176 to 178 °C | 97.6% | 612% |  | 9.0 µM
11 | Cl.N=C(NC(=N)N1CCCC1)NC1CCCC1 [Example 13, N1-pyrrolidine-N5-cyclopentyl biguanide hydrochloride] | > 100 µM | 200 to 201 °C | 41.9% | 131% | 375% | 11.9 µM
12 | Cl.N=C(NC(=N)N1CCCCCC1)NC1CCCCCC1 [Example 19, N1-azepane-N5-cycloheptyl biguanide hydrochloride] | 35.7 µM | 237 to 238 °C | 94.7% | 213% | 325% | 5.6 µM

Continued, in another order:

Row | GI50 [1] | melting point | SMILES | inhibition at 100 µM [1] | AMPK activation effect 10 uM (%) [2] | AMPK activation effect 50 uM (%) [2] | AC150 (concentration at which AMPK activation reached 150%) [2]
13 | 32.4 µM | 268 to 270 °C | Cl.N=C(NCc1ccc(C(F)(F)F)cc1)NC(=N)N1CCCC1 [Example 38, N1-pyrrolidine-N5-(4-trifluoromethyl)benzyl biguanide hydrochloride] | 61.6% | 116% | 213% | 1.4 µM
14 | 15.2 µM | 232 to 235 °C | Cl.N=C(NCc1ccc(F)c(C(F)(F)F)c1)NC(=N)N1CCCCC1 [Example 44, N1-piperidine-N5-(4-fluoro-3-trifluoromethyl)benzyl biguanide hydrochloride] | 32.6% | 180% | 383% | 10.3 µM
15 | 39.3 µM | 260 to 261 °C | Cl.N=C(NCc1ccc(C(F)(F)F)cc1)NC(=N)N1CCC1 [Example 37, N1-azetidine-N5-(4-trifluoromethyl)benzyl biguanide hydrochloride] | 23.5% | 100% | 107% | 24.2 µM
16 | 21.3 µM | 264 to 266 °C | Cl.N=C(NCc1ccc(C(F)(F)F)c(F)c1)NC(=N)N1CCCCC1 [Example 46, N1-piperidine-N5-(3-fluoro-4-trifluoromethyl)benzyl biguanide hydrochloride] | 101% | 331% | 389% | 1.1 µM
17 | 36.9 µM | 182 to 184 °C | Cl.N=C(NCc1ccc(OC(F)(F)F)cc1)NC(=N)N1CCC1 [Example 40, N1-azetidine-N5-(4-trifluoromethoxy)benzyl biguanide hydrochloride] | 97.8% | 673% | 1076% | 3.9 µM
18 | 23.2 µM | 261 to 262 °C | Cl.N=C(NCc1ccc(Br)cc1)NC(=N)N1CCCCC1 [Example 35, N1-piperidine-N5-(4-bromo)benzyl biguanide hydrochloride] | 53.8% | 140% | 150% | 1.1 µM
19 | 70.5 µM | 241 to 243 °C | Cc1ccc(CNC(=N)NC(=N)N2CCCCC2)cc1.Cl [Example 27, N1-piperidine-N5-(4-methyl)benzyl biguanide hydrochloride] | 64.9% | 435% | 947% | 2.3 µM
